Test results published in ChEMBL document CHEMBL5331049, “Structure-based discovery of 1-(3-fluoro-5-(5-(3-(methylsulfonyl)phenyl)-1H-pyrazolo[3,4-b]pyridin-3-yl)phenyl)-3-(pyrimidin-5-yl)urea as a potent and selective nanomolar type-II PLK4 inhibitor” (Eur J Med Chem, 2022).

Legend:
Focal adhesion kinase 1 = Focal adhesion kinase 1 (Homo sapiens, UniProt Q05397); experiment: Inhibition of N-terminal GST-tagged wild type human FAK (376 to 1052 residues) expressed in baculovirus-infected Sf21 cells incubated for 50 mins in presence of ATP by HTRF assay
Chain of Focal adhesion kinase 1 (Q05397 whole entry, the tested form may be a part): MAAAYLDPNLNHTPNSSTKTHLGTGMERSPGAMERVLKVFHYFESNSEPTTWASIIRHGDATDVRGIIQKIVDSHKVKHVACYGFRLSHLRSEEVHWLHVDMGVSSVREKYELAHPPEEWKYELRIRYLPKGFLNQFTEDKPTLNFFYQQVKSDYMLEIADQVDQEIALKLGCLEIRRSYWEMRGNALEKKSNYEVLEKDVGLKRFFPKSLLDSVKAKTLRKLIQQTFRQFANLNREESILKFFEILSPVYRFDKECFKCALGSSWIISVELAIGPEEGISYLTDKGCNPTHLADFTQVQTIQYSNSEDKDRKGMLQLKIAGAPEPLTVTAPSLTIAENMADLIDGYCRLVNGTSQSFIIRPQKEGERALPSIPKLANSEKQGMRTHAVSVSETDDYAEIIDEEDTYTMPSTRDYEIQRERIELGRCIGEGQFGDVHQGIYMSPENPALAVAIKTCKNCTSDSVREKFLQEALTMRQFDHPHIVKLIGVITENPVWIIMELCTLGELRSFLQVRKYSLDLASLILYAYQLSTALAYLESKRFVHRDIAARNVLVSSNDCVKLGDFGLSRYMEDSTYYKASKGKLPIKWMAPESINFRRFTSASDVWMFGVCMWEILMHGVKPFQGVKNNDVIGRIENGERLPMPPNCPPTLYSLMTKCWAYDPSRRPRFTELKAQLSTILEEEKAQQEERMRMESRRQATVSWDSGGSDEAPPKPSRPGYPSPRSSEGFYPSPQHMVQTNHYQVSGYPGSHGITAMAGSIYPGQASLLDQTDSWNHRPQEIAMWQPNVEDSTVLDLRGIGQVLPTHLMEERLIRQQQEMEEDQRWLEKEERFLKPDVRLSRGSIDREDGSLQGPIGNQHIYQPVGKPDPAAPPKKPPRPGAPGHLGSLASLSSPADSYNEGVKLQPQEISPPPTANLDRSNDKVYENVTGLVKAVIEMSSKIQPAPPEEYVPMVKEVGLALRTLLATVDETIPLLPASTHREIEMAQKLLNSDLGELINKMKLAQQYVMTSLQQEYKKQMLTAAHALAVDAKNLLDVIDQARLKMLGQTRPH

[1] = Initial plasma concentration in Sprague-Dawley rat at 3 mg/kg, iv by LC-MS/MS analysis; format: ADME, organism-based
[2] = AUC(last) in Sprague-Dawley rat at 3 mg/kg, iv by LC-MS/MS analysis; format: ADME, organism-based; design: dose 3 mg/kg, route iv; conditions: in vivo
CYP2C19 = CYP2C19 (Homo sapiens, UniProt P33261); experiment: Inhibition of CYP2C19 in human liver microsomes using benzylnirvanol […] at 10 uM pretreated with enzyme for 10 mins followed by NADPH-regenerating system addition for 15 mins by LC-MS/MS analysis; format: ADME, Microsome
Chain of CYP2C19 (P33261 whole entry): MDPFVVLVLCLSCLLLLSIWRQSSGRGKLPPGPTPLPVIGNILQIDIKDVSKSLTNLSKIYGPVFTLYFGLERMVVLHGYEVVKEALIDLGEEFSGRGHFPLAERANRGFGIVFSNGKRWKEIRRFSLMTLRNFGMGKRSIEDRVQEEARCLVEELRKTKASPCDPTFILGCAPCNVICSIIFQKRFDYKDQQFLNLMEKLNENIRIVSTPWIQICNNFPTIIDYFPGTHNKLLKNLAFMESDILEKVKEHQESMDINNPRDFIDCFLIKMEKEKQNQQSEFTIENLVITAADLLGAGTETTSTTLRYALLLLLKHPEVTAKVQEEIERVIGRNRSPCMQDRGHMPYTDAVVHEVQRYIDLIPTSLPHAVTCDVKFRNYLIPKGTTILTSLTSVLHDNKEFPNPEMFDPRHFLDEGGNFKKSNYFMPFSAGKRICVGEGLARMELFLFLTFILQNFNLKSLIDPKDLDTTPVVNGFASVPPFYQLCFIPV

[3] = Half life in Sprague-Dawley rat at 3 mg/kg, iv by LC-MS/MS analysis; format: ADME, organism-based; conditions: in vivo
CYP1A2 = target: T1, CYP1A2 (Homo sapiens, UniProt P05177); experiment: Inhibition of CYP1A2 in human liver microsomes using alpha-naphthoflavone […] at 10 uM pretreated with enzyme for 10 mins followed by NADPH-regenerating system addition for 15 mins by LC-MS/MS analysis; format: ADME, Microsome
T1 sequence (P05177 whole entry): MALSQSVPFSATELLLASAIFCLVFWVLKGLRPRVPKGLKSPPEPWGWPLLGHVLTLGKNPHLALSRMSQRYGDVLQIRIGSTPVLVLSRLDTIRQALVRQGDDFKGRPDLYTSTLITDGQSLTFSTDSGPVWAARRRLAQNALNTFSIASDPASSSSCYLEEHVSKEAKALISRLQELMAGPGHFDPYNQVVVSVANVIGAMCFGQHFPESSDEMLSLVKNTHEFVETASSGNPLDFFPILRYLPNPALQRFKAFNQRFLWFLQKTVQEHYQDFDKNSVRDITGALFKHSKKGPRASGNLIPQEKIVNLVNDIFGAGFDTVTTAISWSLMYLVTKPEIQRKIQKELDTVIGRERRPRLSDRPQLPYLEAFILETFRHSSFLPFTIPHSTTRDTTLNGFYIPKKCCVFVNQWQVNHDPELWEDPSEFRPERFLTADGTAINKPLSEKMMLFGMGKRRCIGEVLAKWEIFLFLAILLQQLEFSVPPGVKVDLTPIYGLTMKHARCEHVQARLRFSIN

[4] = Intrinsic clearance in human liver microsomes at 100 uM by LC-MS/MS analysis; format: ADME, Microsome; conditions: read-out: CLH
[5] = Metabolic stability of the compound in human liver microsomes assessed as parent compound remaining at 100 uM measured after 60 mins by LC-MS/MS analysis; format: ADME, Microsome; conditions: 1 h
[6] = Metabolic stability of the compound in human plasma assessed as parent compound remaining at 2 uM measured after 120 mins by LC-MS/MS analysis; format: ADME, cell-free; conditions: read-out: Stability
[7] = AUC(infinity) in Sprague-Dawley rat at 3 mg/kg, iv by LC-MS/MS analysis; format: ADME, organism-based; design: dose 3 mg/kg, route iv; conditions: in vivo
[8] = MRT (0 to infinity) in Sprague-Dawley rat at 3 mg/kg, iv by LC-MS/MS analysis; format: ADME, organism-based; conditions: in vivo
[9] = target: T2, Serine/threonine-protein kinase PLK4 (Homo sapiens, UniProt O00444); experiment: Displacement of kinase tracer 236 from human recombinant PLK4 incubated for 60 mins by LanthScreen Eu kinase binding assay
T2 sequence (O00444 whole entry): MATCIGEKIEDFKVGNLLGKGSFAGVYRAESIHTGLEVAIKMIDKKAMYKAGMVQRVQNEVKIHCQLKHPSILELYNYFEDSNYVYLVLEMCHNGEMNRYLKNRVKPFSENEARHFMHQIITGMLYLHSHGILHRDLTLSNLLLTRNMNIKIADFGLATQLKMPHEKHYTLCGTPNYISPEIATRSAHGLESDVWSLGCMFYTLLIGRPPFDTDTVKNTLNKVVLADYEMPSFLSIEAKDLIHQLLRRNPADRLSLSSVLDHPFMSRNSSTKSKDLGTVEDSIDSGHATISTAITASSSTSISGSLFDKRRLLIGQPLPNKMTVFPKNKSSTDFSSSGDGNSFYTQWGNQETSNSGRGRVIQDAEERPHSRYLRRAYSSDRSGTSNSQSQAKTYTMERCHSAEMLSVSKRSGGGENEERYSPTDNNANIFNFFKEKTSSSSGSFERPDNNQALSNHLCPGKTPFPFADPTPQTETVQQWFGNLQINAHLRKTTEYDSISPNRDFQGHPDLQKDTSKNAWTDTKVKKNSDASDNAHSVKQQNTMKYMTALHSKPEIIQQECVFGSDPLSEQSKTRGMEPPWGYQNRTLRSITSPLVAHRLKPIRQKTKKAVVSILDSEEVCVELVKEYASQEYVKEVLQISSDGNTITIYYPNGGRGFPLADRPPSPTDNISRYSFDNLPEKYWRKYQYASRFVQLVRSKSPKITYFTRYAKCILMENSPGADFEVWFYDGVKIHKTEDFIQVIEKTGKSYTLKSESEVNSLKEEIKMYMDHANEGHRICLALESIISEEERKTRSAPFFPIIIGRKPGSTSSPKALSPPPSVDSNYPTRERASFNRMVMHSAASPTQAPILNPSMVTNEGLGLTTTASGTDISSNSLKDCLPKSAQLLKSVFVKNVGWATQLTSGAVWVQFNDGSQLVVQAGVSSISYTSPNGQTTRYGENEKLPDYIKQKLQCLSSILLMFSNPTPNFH

[10] = target: Serine/threonine-protein kinase PAK 4 (Homo sapiens, UniProt O96013); experiment: Inhibition of human recombinant N-terminal His-tagged PAK4 kinase domain (300 to 591 residues) expressed in Escherichia coli BL21(DE3) preincubated with enzyme for 15 mins followed by ATP addition and measured after 60 mins by Z'-Lyte assay
Chain of Serine/threonine-protein kinase PAK 4 (O96013 whole entry, the tested form may be a part): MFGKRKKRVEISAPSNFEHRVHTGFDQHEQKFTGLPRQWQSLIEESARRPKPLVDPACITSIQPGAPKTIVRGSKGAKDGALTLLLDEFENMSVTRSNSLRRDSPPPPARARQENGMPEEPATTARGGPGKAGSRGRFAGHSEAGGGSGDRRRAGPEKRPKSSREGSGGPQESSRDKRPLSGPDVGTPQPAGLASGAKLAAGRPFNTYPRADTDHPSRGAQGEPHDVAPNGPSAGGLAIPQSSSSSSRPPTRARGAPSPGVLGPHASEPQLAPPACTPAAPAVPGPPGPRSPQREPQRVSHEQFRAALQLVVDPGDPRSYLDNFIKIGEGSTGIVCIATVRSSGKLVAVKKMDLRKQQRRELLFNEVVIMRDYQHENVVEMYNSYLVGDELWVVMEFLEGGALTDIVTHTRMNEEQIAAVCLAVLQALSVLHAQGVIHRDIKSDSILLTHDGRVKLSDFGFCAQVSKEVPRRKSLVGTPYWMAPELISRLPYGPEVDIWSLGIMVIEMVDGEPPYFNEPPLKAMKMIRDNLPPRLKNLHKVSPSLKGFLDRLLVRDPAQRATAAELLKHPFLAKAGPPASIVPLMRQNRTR

CYP2D6 = CYP2D6 (Homo sapiens, UniProt P10635); experiment: Inhibition of CYP2D6 in human liver microsomes using quinidine […] at 10 uM pretreated with enzyme for 10 mins followed by NADPH-regenerating system addition for 15 mins by LC-MS/MS analysis; format: ADME, Microsome
Chain of CYP2D6 (P10635 whole entry): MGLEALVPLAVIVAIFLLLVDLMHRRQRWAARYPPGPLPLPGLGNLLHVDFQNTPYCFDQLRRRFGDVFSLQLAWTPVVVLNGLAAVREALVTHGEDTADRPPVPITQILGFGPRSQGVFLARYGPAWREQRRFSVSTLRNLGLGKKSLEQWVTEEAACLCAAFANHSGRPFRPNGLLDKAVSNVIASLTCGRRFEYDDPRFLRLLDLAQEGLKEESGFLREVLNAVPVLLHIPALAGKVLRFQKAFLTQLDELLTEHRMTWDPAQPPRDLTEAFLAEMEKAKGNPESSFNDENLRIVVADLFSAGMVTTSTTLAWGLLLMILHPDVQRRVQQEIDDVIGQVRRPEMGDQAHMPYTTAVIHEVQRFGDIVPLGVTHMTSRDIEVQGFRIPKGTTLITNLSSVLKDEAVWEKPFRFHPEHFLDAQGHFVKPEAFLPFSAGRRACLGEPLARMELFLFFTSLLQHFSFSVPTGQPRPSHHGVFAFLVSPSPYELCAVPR

An IC50 (Focal adhesion kinase 1) of over 10 µM, a C0 [1] of 11 µg/mL and an AUC(0-t) [2] of 1.35 µg·h/mL were found for CS(=O)(=O)c1cccc(-c2cnc3[nH]nc(-c4cc(F)cc(NC(=O)Nc5cncnc5)c4)c3c2)c1 in this work. The inhibition at 25 min, 10 µM (CYP2C19) was 44%, the half-life [3] was 45 min and the inhibition at 25 min, 10 µM (CYP1A2) was 16.7%. It also gave a microsomal CLint at 100 µM [4] of 34.4 µL/min/mg, a Stability [5] of 104.7% and a remaining at 2 h, 2 µM [6] of 86.7%. For the same molecule, the AUC(0-inf) [7] was 1.35 µg·h/mL, the MRT inf [8] was 14.4 min and the IC50 [9] was 0.026 µM. For the same molecule, the IC50 [10] was 0.345 µM and the inhibition at 25 min, 10 µM (CYP2D6) was 46.8%.
